Target: T1, human PDE4B1 (Homo sapiens, UniProt Q07343)
T1 construct: host or cells: Sf9 cells
Assay: cAMP HTRF assay to determine the activity of hPDE4B1
Type: biochemical
Conditions: for IC50: dose response measurements with eight concentrations, reported as ranges, read-out: IC50
Protocol: cAMP HTRF® Assay to Determine the Activity of hPDE4B1
The inhibiting effect of the compounds on the enzyme activity of human PDE4B1 was measured by the quantification of 5′-adenosine monophosphate (5′-AMP), which is formed from 3′,5′-cyclic adenosine monophosphate (cAMP). Human recombinant enzyme, expressed in Sf9 cells, and the HTRF (homogeneous time-resolved fluorescence) detection method were used in the assay.
The test compound or water (control) was mixed with the human recombinant PDE4B1 enzyme (4.8 U) in a buffer consisting of 44.4 mM tris-HCl, 5.28 mM MgCl2, 2.64 mM DTT and 0.044% Tween 20 (pH 7.8). After adding the cAMP enzyme substrate (final concentration 40 nM), the mixture was incubated for 30 minutes at room temperature. Then a fluorescence acceptor (Dye2 marked with cAMP), a fluorescence donor (anti-cAMP antibody marked with a europium cryptate) and the non-specific phosphodiesterase inhibitor IBMX (3-isobutyl-1-methylxanthine; final concentration 1 mM) were added. After 60 minutes the fluorescence transfer, which correlates with the amount of remaining cAMP, was measured with a microplate reader (Rubystar, BMG) at λex=337 nm, λem=620 nm and λem=665 nm. The enzyme activity was calculated from the quotient formed from the measured signal at 665 nm and that at 620 nm. The result was expressed as the percentage inhibition of enzyme activity of the control (without PDE4 inhibitor). The enzyme was omitted for measurement of the basal control.
IC50 values (IC50=concentration causing a half-maximal inhibition of control specific activity) were derived from dose response measurements with eight different concentrations (n=2; N=1-2).
Literature: N. Saldou et al., Comparison of recombinant human PDE4 isoforms: interaction with substrate and inhibitors, Cell. Signal. Vol. 10, No. 6, 427-440, 1998

[1] = Percentage inhibition of PDE4B at 1 μM test concentration

T1 sequence (Q07343 whole entry): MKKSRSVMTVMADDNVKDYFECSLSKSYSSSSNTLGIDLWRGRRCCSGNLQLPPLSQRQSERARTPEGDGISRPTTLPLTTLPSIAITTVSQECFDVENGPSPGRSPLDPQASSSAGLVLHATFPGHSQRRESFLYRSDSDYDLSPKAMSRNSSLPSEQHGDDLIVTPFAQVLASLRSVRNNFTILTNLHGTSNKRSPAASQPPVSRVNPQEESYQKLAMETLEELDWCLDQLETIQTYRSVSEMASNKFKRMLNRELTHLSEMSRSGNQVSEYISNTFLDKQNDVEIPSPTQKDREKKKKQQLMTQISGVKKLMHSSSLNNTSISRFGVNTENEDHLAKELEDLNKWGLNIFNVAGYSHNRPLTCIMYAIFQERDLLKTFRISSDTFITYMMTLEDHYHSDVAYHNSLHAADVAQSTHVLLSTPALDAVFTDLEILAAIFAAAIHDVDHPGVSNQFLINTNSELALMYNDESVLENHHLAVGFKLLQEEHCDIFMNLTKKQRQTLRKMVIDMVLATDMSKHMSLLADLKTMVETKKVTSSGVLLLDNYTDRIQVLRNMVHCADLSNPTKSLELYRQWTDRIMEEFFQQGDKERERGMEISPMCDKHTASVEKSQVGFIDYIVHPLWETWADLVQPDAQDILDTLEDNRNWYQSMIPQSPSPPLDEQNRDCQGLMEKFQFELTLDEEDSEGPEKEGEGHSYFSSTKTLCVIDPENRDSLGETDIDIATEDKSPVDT

inhibition at 1 µM [1] | IC50 | Inhibition at 1 μM test concentration [%] (Percentage inhibition of PDE4B at 1 μM test concentration, 1 µM) | SMILES
35% |  |  | O=C(O)c1ccc2c(c1)ncn2-c1nc(-c2ccc(Cl)s2)nc2c1CCC2 (single isomer, unassigned) [Compound No. 1-63, 1-(2-(5-Chlorothiophen-2-yl)-6,7-dihydro-5H-cyclopenta[d]pyrimidin-4-yl)-1H-benzo[d]imidazole-5-carboxylic acid]
31% |  |  | O=C(O)c1ccc2ncn(-c3nc(-c4ccc(Cl)s4)nc4c3CCC4)c2c1 (single isomer, unassigned) [Compound No. 1-74, 1-(2-(5-Chlorothiophen-2-yl)-6,7-dihydro-5H-cyclopenta[d]pyrimidin-4-yl)-1H-benzo[d]imidazole-6-carboxylic acid]
80% | 100 to 1000 nM |  | CN(C)C(=O)COc1ccc2ncn(-c3nc(-c4ccc(Cl)s4)nc4c3C[S+]([O-])C4)c2c1 (single isomer, unassigned) [Compound No. 2-74, 2-((1-(2-(5-Chlorothiophen-2-yl)-6-oxido-5,7-dihydrothieno[3,4-d]pyrimidin-4-yl)-1H-benzo[d]imidazol-6-yl)oxy)-N,N-dimethylacetamide]
39% |  |  | CN(C)C(=O)COc1ccc2c(c1)ncn2-c1nc(-c2ccc(Cl)s2)nc2c1C[S+]([O-])C2 (single isomer, unassigned) [Compound No. 2-75, 2-((1-(2-(5-Chlorothiophen-2-yl)-6-oxido-5,7-dihydrothieno[3,4-d]pyrimidin-4-yl)-1H-benzo[d]imidazol-5-yl)oxy)-N,N-dimethylacetamide]
105% | < 100 nM |  | COc1ccc(-c2nc3c(c(N4CCc5ccc(OCC(=O)N(C)C)cc54)n2)C[S+]([O-])C3)cc1 (centres unmarked) [2-18, 2-((1-(2-(4-Methoxyphenyl)-6-oxido-5,7-dihydrothieno[3,4-d]pyrimidin-4-yl)indolin-6-yl)oxy)-N,N-dimethylacetamide]
 |  | 98% | COc1ccc(-c2nc3c(c(N4CCc5ccc(OCC(=O)N(C)C)cc54)n2)C[S+]([O-])C3)cc1 (centres unmarked) [2-20, 2-[[1-[2-(4-Methoxyphenyl)-6-oxo-5,7-dihydro-thieno[3,4-d]pyrimidin-4-yl]-2,3-dihydro-1H-indol-6-yl]oxy]-N,N-dimethyl-acetamide]
115% | < 100 nM |  | CN(C)C(=O)COc1ccc2c(c1)N(c1nc(-c3cccc(F)c3)nc3c1C[S+]([O-])C3)CC2 (centres unmarked) [2-24, 2-[[1-[2-(3-Fluorophenyl)-6-oxo-5,7-dihydro-thieno[3,4-d]pyrimidin-4-yl]-2,3-dihydro-1H-indol-6-yl]oxy]-N,N-dimethyl-acetamide]
 | < 100 nM |  | COc1ccc(-c2nc3c(c(N4CCc5ccc(OCC(=O)N(C)C)cc54)n2)CSC3)cc1Cl [2-31]
94% | < 100 nM |  | CN(C)C(=O)COc1ccc2c(c1)N(c1nc(-c3ccc(F)s3)nc3c1C[S+]([O-])C3)CC2 (centres unmarked) [2-48, 2-((1-(2-(5-Fluorothiophen-2-yl)-6-oxido-5,7-dihydrothieno[3,4-d]pyrimidin-4-yl)indolin-6-yl)oxy)-N,N-dimethylacetamide]
91% | < 100 nM |  | O=C(COc1ccc2c(c1)N(c1nc(-c3ccc(Cl)s3)nc3c1CS(=O)(=O)C3)CC2)NCCO [2-62, 2-((1-(2-(5-Chlorothiophen-2-yl)-6,6-dioxido-5,7-dihydrothieno[3,4-d]pyrimidin-4-yl)indolin-6-yl)oxy)-N-(2-hydroxyethyl)acetamide]
62% | 100 to 1000 nM |  | CN(C)C(=O)COc1ccc2oc(=O)n(-c3nc(-c4ccc(Cl)s4)nc4c3C[S+]([O-])C4)c2c1 (centres unmarked) [2-76, 2-((3-(2-(5-Chlorothiophen-2-yl)-6-oxido-5,7-dihydrothieno[3,4-d]pyrimidin-4-yl)-2-oxo-2,3-dihydrobenzo[d]oxazol-5-yl)oxy)-N,N-dimethylacetamide]
99% |  |  | CN(C)C(=O)COc1ccc2c(c1)N(c1nc(-c3ccc(C(N)=O)s3)nc3c1CCC3)CC2 [2-85, 5-(4-(6-(2-(Dimethylamino)-2-oxoethoxy)indolin-1-yl)-6,7-dihydro-5H-cyclopenta[d]pyrimidin-2-yl)thiophene-2-carboxamide]
112% | < 100 nM |  | Cc1ccc(-c2nc3c(c(N4CCc5ccc(OCC(=O)N(C)C)cc54)n2)C[S+]([O-])C3)cc1 (centres unmarked) [2-87, N,N-Dimethyl-2-[[1-(6-oxo-2-p-tolyl-5,7-dihydro-thieno[3,4-d]pyrimidin-4-yl)-2,3-dihydro-1H-indol-6-yl]oxy]-acetamide]
73% | 100 to 1000 nM |  | COc1ccccc1-c1nc2c(c(N3CCc4ccc(OCC(=O)N(C)C)cc43)n1)C[S+]([O-])C2 (centres unmarked) [2-88, 2-[[1-[2-(2-Methoxyphenyl)-6-oxo-5,7-dihydro-thieno[3,4-d]pyrimidin-4-yl]-2,3-dihydro-1H-indol-6-yl]oxy]-N,N-dimethyl-acetamide]
119% | < 100 nM |  | CN(C)C(=O)COc1ccc2c(c1)N(c1nc(-c3cccc(Cl)c3)nc3c1C[S+]([O-])C3)CC2 (centres unmarked) [2-89, 2-[[1-[2-(3-Chlorophenyl)-6-oxo-5,7-dihydro-thieno[3,4-d]pyrimidin-4-yl]-2,3-dihydro-1H-indol-6-yl]oxy]-N,N-dimethyl-acetamide]
117% | < 100 nM |  | CN(C)C(=O)COc1ccc2c(c1)N(c1nc(-c3ccc(Cl)cc3)nc3c1C[S+]([O-])C3)CC2 (centres unmarked) [2-90, 2-[[1-[2-(4-Chlorophenyl)-6-oxo-5,7-dihydro-thieno[3,4-d]pyrimidin-4-yl]-2,3-dihydro-1H-indol-6-yl]oxy]-N,N-dimethyl-acetamide]
117% | < 100 nM |  | COc1cccc(-c2nc3c(c(N4CCc5ccc(OCC(=O)N(C)C)cc54)n2)C[S+]([O-])C3)c1 (centres unmarked) [2-91, 2-[[1-[2-(3-Methoxyphenyl)-6-oxo-5,7-dihydro-thieno[3,4-d]pyrimidin-4-yl]-2,3-dihydro-1H-indol-6-yl]oxy]-N,N-dimethyl-acetamide]
97% | < 100 nM |  | CN(C)C(=O)COc1ccc2c(c1)N(c1nc(-c3ccc(C#N)cc3)nc3c1C[S+]([O-])C3)CC2 (centres unmarked) [2-92, 2-[[1-[2-(4-Cyano-phenyl)-6-oxo-5,7-dihydro-thieno[3,4-d]pyrimidin-4-yl]-2,3-dihydro-1H-indol-6-yl]oxy]-N,N-dimethyl-acetamide]
121% | < 100 nM |  | CN(C)C(=O)COc1ccc2c(c1)N(c1nc(-c3ccccc3)nc3c1C[S+]([O-])C3)CC2 (centres unmarked) [2-93, N,N-Dimethyl-2-[[1-(6-oxo-2-phenyl-5,7-dihydro-thieno[3,4-d]pyrimidin-4-yl)-2,3-dihydro-1H-indol-6-yl]oxy]-acetamide]
91% | 100 to 1000 nM |  | Cc1ccccc1-c1nc2c(c(N3CCc4ccc(OCC(=O)N(C)C)cc43)n1)C[S+]([O-])C2 (centres unmarked) [2-94, N,N-Dimethyl-2-[[1-(2-o-tolyl-6-oxo-5,7-dihydro-thieno[3,4-d]pyrimidin-4-yl)-2,3-dihydro-1H-indol-6-yl]oxy]-acetamide]
113% | < 100 nM |  | Cc1cccc(-c2nc3c(c(N4CCc5ccc(OCC(=O)N(C)C)cc54)n2)C[S+]([O-])C3)c1 (centres unmarked) [2-95, N,N-Dimethyl-2-[[1-(2-m-tolyl-6-oxo-5,7-dihydro-thieno[3,4-d]pyrimidin-4-yl)-2,3-dihydro-1H-indol-6-yl]oxy]-acetamide]
107% | < 100 nM |  | CN(C)C(=O)COc1ccc2c(c1)N(c1nc(-c3ccccc3Cl)nc3c1C[S+]([O-])C3)CC2 (centres unmarked) [2-96, 2-[[1-[2-(2-Chlorophenyl)-6-oxo-5,7-dihydro-thieno[3,4-d]pyrimidin-4-yl]-2,3-dihydro-1H-indol-6-yl]oxy]-N,N-dimethyl-acetamide]
93% | 100 to 1000 nM |  | CN(C)C(=O)COc1ccc2c(c1)N(c1nc(-c3ccccc3C(F)(F)F)nc3c1C[S+]([O-])C3)CC2 (centres unmarked) [2-97, N,N-Dimethyl-2-[[1-[6-oxo-2-[2-(trifluoromethyl)-phenyl]-5,7-dihydro-thieno[3,4-d]pyrimidin-4-yl]-2,3-dihydro-1H-indol-6-yl]oxy]-acetamide]
98% | < 100 nM |  | CN(C)C(=O)COc1ccc2c(c1)N(c1nc(-c3cccc(C#N)c3)nc3c1C[S+]([O-])C3)CC2 (centres unmarked) [2-98, 2-[[1-[2-(3-Cyano-phenyl)-6-oxo-5,7-dihydro-thieno[3,4-d]pyrimidin-4-yl]-2,3-dihydro-1H-indol-6-yl]oxy]-N,N-dimethyl-acetamide]
104% | < 100 nM |  | CN(C)C(=O)COc1ccc2c(c1)N(c1nc(-c3ccc(F)cc3)nc3c1C[S+]([O-])C3)CC2 (centres unmarked) [2-99, 2-[[1-[2-(4-Fluorophenyl)-6-oxo-5,7-dihydro-thieno[3,4-d]pyrimidin-4-yl]-2,3-dihydro-1H-indol-6-yl]oxy]-N,N-dimethyl-acetamide]

Reference: patent US9527832B2, “Substituted condensed pyrimidine compounds” (GRÜNENTHAL GMBH, priority 2013, dated 2016)
